Measured values: US20220184231A1, “CLOSED-ENDED DNA (CEDNA) AND IMMUNE MODULATING COMPOUNDS” (Generation Bio Co., priority 2019, published 2022)
“Also recorded” adds a separate entry of the source.

What was measured:
Format in all cases: in vivo
IL-6 = experiment: Cytokine analysis of serum samples after administration: IL-6; conditions: male CD-1 mice, LNP-ceDNA 0.5 mg/kg i.v.; relative to ceDNA treatment alone
From the text: (§1) FIGS. 6A, 6B and 6C provide graphs showing data from the experiments described in Example 6.

[1] = test system: luciferase transgene expression from ceDNA vector; experiment: In-life IVIS imaging of luciferase expression from ceDNA vector; conditions: male CD-1 mice, LNP-ceDNA 0.5 mg/kg i.v., day 4 and day 7, compared with ceDNA/polyC group
Experimental: A ceDNA vector encoding luciferase as the transgene (e.g., SEQ ID NO: 56), with a wild-type AAV2 left ITR and a mutant right ITR and a hAAT promoter, methylated to eliminate free CpG, was used. The ceDNA vector was prepared as described above. […] Four replicates were included in each sample group. Body weights were recorded on days 0, 1, 2, 3, 7, 14, 21 and 28. In-life imaging was performed on days 4, 7, 14, 21, and 28 using an in vivo imaging system (IVIS). For the imaging, each mouse was injected with luciferin at 150 mg/kg via intraperitoneal injection at 2.5 mL/kg. After 15 minutes, each mouse was anaesthetized and imaged.

cytokines = experiment: Cytokine analysis of serum samples after administration: other cytokines; conditions: male CD-1 mice, LNP-ceDNA 0.5 mg/kg i.v.; cytokines other than IL-6, TNF-alpha, RANTES
From the text: as §1

RANTES = experiment: Cytokine analysis of serum samples after administration: RANTES; conditions: male CD-1 mice, LNP-ceDNA 0.5 mg/kg i.v.; relative to ceDNA treatment alone
From the text: as §1

TNF-alpha = experiment: Cytokine analysis of serum samples after administration: TNF-alpha; conditions: male CD-1 mice, LNP-ceDNA 0.5 mg/kg i.v.; relative to ceDNA treatment alone
From the text: as §1

Substance: dexamethasone palmitate
- induction of IL-6 (serum level) (IL-6): significantly less induction; also recorded: significantly reduced
- total flux (luciferase expression from the ceDNA vector) [1]: no impact
- levels of other cytokines (serum) (cytokines): not impacting
- induction of RANTES (serum level) (RANTES): significantly less induction; also recorded: significantly reduced
- induction of TNF-alpha (serum level) (TNF-alpha): significantly less induction; also recorded: significantly reduced
